Laboratory results as given in PMC8646019, “Azvudine is a thymus-homing anti-SARS-CoV-2 drug effective in treating COVID-19 patients” (Signal Transduction and Targeted Therapy, 2021).

How the values were obtained:
viral replication = settings: FNC compound itself, not phosphorylated; cited from earlier work
SARS-CoV-2 = assay: Multi-color immunofluorescence staining and tissue cytometry (Tissue FAXS) of infected rhesus macaque tissues; assay type: in vivo, rhesus macaques
From the text: To further verify the antiviral effect of FNC in the thymus, viral S-protein in the thymus was detected with immune staining. […] Tissue ACE2 was stained red, and viral S-protein was stained green. More green signals were detected in the thymus of the untreated monkey than in the FNC-treated one. Viral S-protein was quantitatively measured in the thymus with the Tissue FAXS platform and Tissue Quest software (Tissue Gnostics).[10],[26]–[30] […] The results of all eight monkeys are shown in Supplementary Fig. 10. […] Further evaluation of thymus cells undergoing programmed death was done with TUNEL staining, followed by quantitation with Tissue FAXS platform and Tissue Quest software (Tissue Gnostics, described in Methods). As shown in Supplementary Fig. 11, the number of apoptotic thymus cells from the untreated virus (+) monkeys was much higher than that from the FNC-treated ones.
Fig. 5 FNC-protected thymus from the damage by SARS-CoV-2 infection. By the end of the experiment, the RM monkeys have practiced euthanasia, and the thymus samples were collected. a The representative images of the multi-color immunofluorescent staining were for ACE2 (red) and S protein (green) in the thymus of the RM monkeys that were inoculated with SARS-CoV-2 and treated or untreated with FNC. The regions of interest (ROI) are boxed in white, and their magnified photos are shown in the middle, with a decomposition diagram on the right. […] The regions of interest (ROI) are boxed in white, and their magnified photos are shown below. Data are presented as mean ± SEM (n = 4), *p < 0.05, FNC-treated group vs. untreated group, by Mann–Whitney U test TEXT PRINTED IN THE PICTURE: (b) FNC: ACE2 Mean Intensity / ACE2 Area (um2): 26.43%; S-protein Mean Intensity / S protein Area (um2): 9.83% DOUBTS OF THE COPYIST ABOUT THIS PICTURE: Panel b prints no group label. […] They are left out because an untreated control is not a substance. / The percentages in panel b have no printed measure. The axis titles of each plot were used as the measure.
Tyramide Signal Amplification (TSA)^3 method was used for single staining of IL-4, IL-10, IL13, RORγt and tunnel; double staining of CD3 and CD20, ACE2 and S-protein; as well as triple staining of CD3, CD4 and CD8; ACE2, S-protein and N-protein. In brief, for each marker, the samples were treated with rabbit primary antibody and then incubated with HRP-conjugated goat anti-rabbit secondary antibody. After washing, slides were incubated with fluorescent reagent then heated with microwave oven to remove the combined antibodies. The antibodies were in Table S5.
As described by Kaneko and colleagues,^4 microscopy-based multi color tissue cytometry was applied for quantitative analysis. In brief, images of the tissue specimens were acquired through the Tissue FAXS platform (Tissue Gnostics).^5,6 The area of the detected tissue was acquired as a digital gray scale image in four channels with filter settings for FITC, Cy3, Cy5 and DAPI. Cells of each phenotype were identified and quantitated, relative to the positive controls.

[1] = FNC-treated monkeys, n = 4, Tissue FAXS

Question: Which results are given for `[N-]=[N+]=N[C@]1(CO)O[C@@H](n2ccc(N)nc2=O)[C@@H](F)[C@@H]1O` [FNC, 2′-deoxy-2′-β-fluoro-4′-azidocytidine]?
Answer: inhibiting viral replication in vitro (viral replication): almost inactive; viral S- and N-protein signal in the lung (immune staining) (SARS-CoV-2; FNC-treated monkeys vs untreated): noticeably reduced; S-protein-positive cells in thymus, proportion (SARS-CoV-2; [1]): 8.36 ± 4.84%; absolute numbers of ACE2+ cells in thymus (SARS-CoV-2; [1]): 38,929 ± 19,470 cells; number of S-protein-positive cells in thymus (SARS-CoV-2; [1]): 8941 ± 5436 cells; relative proportion of ACE2+ cells in thymus (SARS-CoV-2; [1]): 35.96 ± 16.90%
